Data published in patent US4540689A, “Penicillin derivative” (Kureha Kagaku Kogyo Kabushiki Kaisha, priority 1981, dated 1985).
In brackets after ≈: the same amount, converted by molar mass.

Columns and labels:
[1] = tested on: Streptococcus spp.; assay: Effect on intestinal bacterial colonies, Streptococcus count in feces; assay type: in vivo; conditions: female ICR mice, oral 500 mg/kg/day for two days, first day after administration; before administration 6.8
Protocol: (§1) Effect of the present compounds on the intestinal bacterial colonies was examined.
(§2) Each of the present compounds was orally administered to mice (one group consisting of five female ICR mice of 6-week-old) for two consecutive days at a dose of 500 mg/kg/day.
(§3) Before and on the first day after the administration, feces of each mouse was collected and diluted with an anerobic diluent (phosphoric buffer solution) of 100 times volume and ground. 0.1 ml of the diluted and ground feces was smeared on each culture medium shown in Table 1 and cultured aerobically or anaerobically (according to the anaerobic glove box method) under each condition shown in Table 1.
TATAC agar aerobic, 37° C., one day

[2] = tested on: Escherichia coli IFO 12734; assay: Antibacterial activity (MIC), agar plate, E. coli; assay type: cell-based; conditions: E. coli IFO 12734, Mueller-Hinton agar, 37° C., 18 to 24 hours; unit assumed
Protocol: (§4) Antibacterial activity of the present compounds was examined as follows.
(§5) Antibacterial activity of each of the present compounds was examined against the following two bacteria according to the standard method of Japan Society of Chemotherapy:
Escherichia coli IFO 12734 and
(§6) Each bacterial strain was inoculated into the Mueller-Hinton's culture medium and cultured at 37° C. for 18 to 48 hours. The culture medium was diluted so as to contain 1×10^6 cells of the bacteria per one ml, and the obtained medium was used as the bacterial specimen.
(§7) Agar plates were prepared by adding one part by weight of each solution of the present compounds having a predetermined concentration to nine parts by weight of Mueller-Hinton's culture medium.
(§8) A loopful amount of the bacterial specimen prepared above was smeared to make a streak of about 2 cm on each agar plate and cultured at 37° C. for 18 to 24 hours. The minimum concentration for completely inhibiting proliferation of the bacteria (referred as MIC) was determined.

[3] = tested on: Staphylococcus aureus IAM 1011; assay: Activation by rat liver homogenate (S-9 mix), penicillin cup proliferation-inhibiting circle; assay type: cell-based; conditions: compound solution 100 μg/ml, ratio of circle diameter to conventional penicillin antibiotic; for Proliferation-inhibiting index (%), after adding S-9 mix: incubated with S-9 mix 37° C., 20 min; for Proliferation-inhibiting index (%), before adding S-9 mix: phosphoric buffer control without S-9
Protocol: As an enzyme for activating metabolism, a rat liver homogenate (S-9, manufactured by Oriental Yeast Company, Japan) was used in the following composition per one ml (hereinafter referred to as S-9 mix).
0.1 ml of each solution of the present compounds at a concentration of 100 μg/ml was mixed with 0.9 ml of S-9 mix or 0.9 ml of 0.1M phosphoric buffer solution (as a control) and the obtained mixture was incubated at 37° C. for 20 min with shaking.
Staphylococcus aureus IAM 1011 was inoculated into a Mueller-Hinton's culture medium and cultured at 37° C. for 18 hours. The culture medium was adjusted to a cell concentration of 1×10^8 per one ml and mixed with 50 times by volume of Mueller-Hinton's agar culture medium to obtain an agar plate.
A penicillin cup of 8 mm in diameter was placed on the agar plate prepared above, and into the cup 0.1 ml of the mixture was introduced and allowed to stand at 4° C. for 2 hours and then cultured at 37° C. for 18 hours to measure the diameter of a circle in which the proliferation of bacteria was inhibited (proliferation-inhibiting circle). In Table 4, the proliferation-inhibitingindex is shown with the ratio (%) of the diameter of the proliferation-inhibiting circle obtained by using each of the present compounds to that obtained by using the comparative compound (conventionalpenicillin antibiotic).

[4] = tested on: Escherichia coli; assay: Effect on intestinal bacterial colonies, E. coli count in feces; assay type: in vivo; conditions: female ICR mice, oral 500 mg/kg/day for two days, first day after administration; before administration 6.4
Protocol: as §1, §2, §3
DHL agar aerobic, 37° C., one day

[5] = tested on: Staphylococcus aureus IAM 1011; assay: Antibacterial activity (MIC), agar plate, Staph. aureus; assay type: cell-based; conditions: Staph. aureus IAM 1011, Mueller-Hinton agar, 37° C., 18 to 24 hours; unit assumed
Protocol: as §4, §5
Staphylococcus aureus IAM 1011
as §6, §7, §8

[6] = tested on: Lactobacillus acidophilus; assay: Effect on intestinal bacterial colonies, L. acidophilus count in feces; assay type: in vivo; conditions: female ICR mice, oral 500 mg/kg/day for two days, first day after administration; before administration 9.0
Protocol: as §1, §2, §3
Lactobacillus acidophilus
LBS agar anaerobic, 37° C., five

[7] = tested on: Lactobacillus bifidus; assay: Effect on intestinal bacterial colonies, L. bifidus count in feces; assay type: in vivo; conditions: female ICR mice, oral 500 mg/kg/day for two days, first day after administration; before administration 8.4
Protocol: as §1, §2, §3
BS agar anaerobic, 37° C., five

[8] = tested on: Bacteroides; assay: Effect on intestinal bacterial colonies, Bacteroides count in feces; assay type: in vivo; conditions: female ICR mice, oral 500 mg/kg/day for two days, first day after administration; before administration 8.3
Protocol: as §1, §2, §3
Bacteroides NBGT agar anaerobic, 37° C., five

[9] = tested on: Pseudomonas aeruginosa; assay: Effect on intestinal bacterial colonies, Ps. aeruginosa count in feces; assay type: in vivo; conditions: female ICR mice, oral 500 mg/kg/day for two days, first day after administration; before administration <3.0
Protocol: as §1, §2, §3
NAC agar aerobic, 37° C., one day

| Compound | MIC, E. coli [2] [µg/mL] | MIC, Staph. aureus [5] [µg/mL] | Logarithmic value of the number of bacterial cells per one gram of feces, Strept. spp. [1] | Proliferation-inhibiting index (%), after adding S-9 mix [3] | Proliferation-inhibiting index (%), before adding S-9 mix [3] | Logarithmic value of the number of bacterial cells per one gram of feces, E. coli [4] | Logarithmic value of the number of bacterial cells per one gram of feces, L. acidophilus [6] | Logarithmic value of the number of bacterial cells per one gram of feces, L. bifidus [7] | Logarithmic value of the number of bacterial cells per one gram of feces, Bacteroides [8] | Logarithmic value of the number of bacterial cells per one gram of feces, Ps. aeruginosa [9] |
| --- | --- | --- | --- | --- | --- | --- | --- | --- | --- | --- |
| CC(=O)OC[C@H]1OC(OC(=O)[C@@H]2N3C(=O)[C@@H](NC(=O)COc4ccccc4)[C@H]3SC2(C)C)[C@H](OC(C)=O)[C@@H](OC(C)=O)[C@@H]1OC(C)=O (stereo partly drawn) [Example 1] | ≥ 200 | 0.39 (≈ 0.573 µM) | 6.8 logarithmic value; cells per o | ± (0-1) | - (0) | 7.2 logarithmic value; cells per o | 9.1 logarithmic value; cells per o | 8.6 logarithmic value; cells per o | 8.5 logarithmic value; cells per o | < 3.0 logarithmic value; cells per o |
| COc1cccc(C=NC(C(=O)N[C@@H]2C(=O)N3[C@@H]2SC(C)(C)[C@@H]3C(=O)O)c2ccccc2)c1O (stereo partly drawn) [Example 2, sodium 6-(3-methoxysalicylaldehydeiminophenyl-glycino)penicillanate] | 6.25 | 0.1 | 6.5 logarithmic value; cells per o | +++ (66-100) | ++ (33-66) | 6.4 logarithmic value; cells per o | 8.8 logarithmic value; cells per o | 8.3 logarithmic value; cells per o | 8.3 logarithmic value; cells per o | < 3.0 logarithmic value; cells per o |
| CC1(C)S[C@@H]2[C@H](NC(=O)C(N=Cc3cc([N+](=O)[O-])ccc3O)c3ccccc3)C(=O)N2[C@H]1C(=O)O (stereo partly drawn) [Example 3] | 12.5 (≈ 25.1 µM) | 0.78 (≈ 1.56 µM) | 6.8 logarithmic value; cells per o | +++ (66-100) | ++ (33-66) | 6.5 logarithmic value; cells per o | 9.1 logarithmic value; cells per o | 8.4 logarithmic value; cells per o | 8.2 logarithmic value; cells per o | < 3.0 logarithmic value; cells per o |
| CC1(C)S[C@@H]2[C@H](NC(=O)C(N=Cc3ccccc3O)c3ccccc3)C(=O)N2[C@H]1C(=O)O (stereo partly drawn) [Example 4, sodium 6-(salicylaldehydeiminophenylglycino)penicillanate] | 12.5 | 0.78 | 6.5 logarithmic value; cells per o | +++ (66-100) | ++ (33-66) | 6.4 logarithmic value; cells per o | 8.8 logarithmic value; cells per o | 8.8 logarithmic value; cells per o | 8.2 logarithmic value; cells per o | < 3.0 logarithmic value; cells per o |
| CC1(C)S[C@@H]2[C@H](NC(=O)C(N=Cc3cc(Cl)ccc3O)c3ccccc3)C(=O)N2[C@H]1C(=O)O (stereo partly drawn) [Example 5, sodium 6-(5-chlorosalicylaldehydeiminophenylglycino)penicillanate] | 6.25 | 0.1 | 6.6 logarithmic value; cells per o | +++ (66-100) | ++ (33-66) | 6.5 logarithmic value; cells per o | 8.8 logarithmic value; cells per o | 8.7 logarithmic value; cells per o | 8.0 logarithmic value; cells per o | 3.3 logarithmic value; cells per o |
| CC(=O)Nc1ccc(C(=O)NCC(=O)N[C@@H](C(=O)N[C@@H]2C(=O)N3[C@@H]2SC(C)(C)[C@@H]3C(=O)O)c2ccccc2)cc1 [Example 8, 7-[N-(p-acetylaminohippuric acid amido)-O-phenylglycineamido]penicillanic acid] | ≥ 100 | ≥ 12.5 | 6.7 logarithmic value; cells per o | – | – | 6.4 logarithmic value; cells per o | 9.2 logarithmic value; cells per o | 8.5 logarithmic value; cells per o | 8.1 logarithmic value; cells per o | < 3.0 logarithmic value; cells per o |

Continued, in another order:

| MIC, E. coli [2] [µg/mL] | MIC, Staph. aureus [5] [µg/mL] | Compound | Logarithmic value of the number of bacterial cells per one gram of feces, Strept. spp. [1] | Proliferation-inhibiting index (%), after adding S-9 mix [3] | Proliferation-inhibiting index (%), before adding S-9 mix [3] | Logarithmic value of the number of bacterial cells per one gram of feces, E. coli [4] | Logarithmic value of the number of bacterial cells per one gram of feces, L. acidophilus [6] | Logarithmic value of the number of bacterial cells per one gram of feces, L. bifidus [7] | Logarithmic value of the number of bacterial cells per one gram of feces, Bacteroides [8] | Logarithmic value of the number of bacterial cells per one gram of feces, Ps. aeruginosa [9] |
| --- | --- | --- | --- | --- | --- | --- | --- | --- | --- | --- |
| ≥ 100 | ≥ 12.5 | Cc1ncc(CO)c(C=NC(C(=O)N[C@@H]2C(=O)N3[C@@H]2SC(C)(C)[C@@H]3C(=O)O)c2ccccc2)c1O (stereo partly drawn) [Example 6] | – | +++ (66-100) | ++ (33-66) | – | – | – | – | – |
| ≥ 100 | ≥ 12.5 | CC(=O)Nc1ccc(C(=O)N[C@@H](C(=O)N[C@@H]2C(=O)N3[C@@H]2SC(C)(C)[C@@H]3C(=O)O)c2ccccc2)cc1 [Example 7, 7-[N-(p-acetylaminobenzoicamido)-D-phenylglycineamido]penicillanic acid] | 6.4 logarithmic value; cells per o | – | – | 6.5 logarithmic value; cells per o | 9.0 logarithmic value; cells per o | 8.2 logarithmic value; cells per o | 8.0 logarithmic value; cells per o | < 3.0 logarithmic value; cells per o |
| ≥ 25 | 12.5 (≈ 30.6 µM) | CCOCOC(=O)[C@@H]1N2C(=O)[C@@H](NC(=O)COc3ccccc3)[C@H]2SC1(C)C [Example 10] | 6.6 logarithmic value; cells per o | – | – | 6.4 logarithmic value; cells per o | 9.0 logarithmic value; cells per o | 8.4 logarithmic value; cells per o | 8.2 logarithmic value; cells per o | < 3.0 logarithmic value; cells per o |
